The compounds below were run against T1, human kinase Mps-1 (Homo sapiens, UniProt P33981) (assay: Mps-1 kinase assay (TR-FRET)). Details: N-terminally GST-tagged human full length recombinant Mps-1; 10 μM ATP; 1 μM peptide substrate; 60 min at 22° C.
T1 construct: N-terminally GST-tagged human full length recombinant Mps-1 kinase; GST (N); purchased Invitrogen, Karslruhe, Germany PV4071
T1 sequence (P33981 1-857): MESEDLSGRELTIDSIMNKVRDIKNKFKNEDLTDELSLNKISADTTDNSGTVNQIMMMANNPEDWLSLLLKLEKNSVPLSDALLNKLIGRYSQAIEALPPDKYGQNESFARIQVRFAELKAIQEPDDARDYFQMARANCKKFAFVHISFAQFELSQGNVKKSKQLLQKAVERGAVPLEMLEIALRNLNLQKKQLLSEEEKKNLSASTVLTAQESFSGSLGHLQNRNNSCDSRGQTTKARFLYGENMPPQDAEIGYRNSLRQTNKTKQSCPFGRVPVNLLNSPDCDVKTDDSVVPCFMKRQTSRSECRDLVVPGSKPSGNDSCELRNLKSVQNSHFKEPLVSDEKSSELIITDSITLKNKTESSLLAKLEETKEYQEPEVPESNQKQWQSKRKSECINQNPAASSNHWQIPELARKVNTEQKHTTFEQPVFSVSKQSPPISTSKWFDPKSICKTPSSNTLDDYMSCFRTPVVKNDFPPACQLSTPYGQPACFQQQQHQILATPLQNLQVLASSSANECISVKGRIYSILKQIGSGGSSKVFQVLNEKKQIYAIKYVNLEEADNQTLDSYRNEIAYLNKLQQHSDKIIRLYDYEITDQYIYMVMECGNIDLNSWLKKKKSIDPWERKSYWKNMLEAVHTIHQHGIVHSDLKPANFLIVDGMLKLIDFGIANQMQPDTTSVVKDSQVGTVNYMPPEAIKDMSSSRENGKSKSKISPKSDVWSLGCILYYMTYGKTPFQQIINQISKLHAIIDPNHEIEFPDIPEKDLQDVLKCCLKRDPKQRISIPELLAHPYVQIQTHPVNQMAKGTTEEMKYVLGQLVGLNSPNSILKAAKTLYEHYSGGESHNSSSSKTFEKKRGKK
Assay type: biochemical
Experimental: The human kinase Mps-1 phosphorylates a biotinylated substrate peptide. Detection of the phosphorylated product is achieved by time-resolved fluorescence resonance energy transfer (TR-FRET) from Europium-labelled anti-phospho-Serine/Threonine antibody as donor to streptavidin labelled with cross-linked allophycocyanin (SA-XLent) as acceptor. Compounds are tested for their inhibition of the kinase activity.
N-terminally GST-tagged human full length recombinant Mps-1 kinase (purchased from Invitrogen, Karslruhe, Germany, cat. no PV4071) was used. As substrate for the kinase reaction a biotinylated peptide of the amino-acid sequence […] (C-terminus in amide form, purchased from Biosynthan GmbH, Berlin) was used.
The concentration of Mps-1 in the assay was adjusted to the activity of the enzyme lot and was chosen appropriate to have the assay in the linear range, typical enzyme concentrations were in the range of about 1 nM (final conc. in the 5 μl assay volume).
The resulting mixture was incubated 1 h at 22° C. to allow the binding of the phosphorylated peptide to the anti-phospho(Ser/Thr)-Europium-antibody. Subsequently the amount of phosphorylated substrate was evaluated by measurement of the resonance energy transfer from the Europium-labelled anti-phospho(Ser/Thr) antibody to the Streptavidin-XLent.

**Q.** `CNC(=O)c1ccc(-c2cnc3c(NCCC(F)(F)F)cc(Oc4ccccc4)cn23)cc1C` [Example 59, N,2-dimethyl-4-{6-phenoxy-8-[(3,3,3-trifluoropropyl)amino]imidazo[1,2-a]pyridin-3-yl}benzamide] was tested. Which IC50 did it give?
**A.** Its IC50 is 1.5 nM.

**Q.** How did the IC50 turn out when `Cc1cc(-c2cnc3c(NCCC(F)(F)F)cc(Oc4cccc(Cl)c4)cn23)ccc1C(=O)NC1CC1` [Example 31, 4-{6-(3-chlorophenoxy)-8-[(3,3,3-trifluoropropyl)amino]imidazo[1,2-a]pyridin-3-yl}-N-cyclopropyl-2-methylbenzamide] was run?
**A.** The IC50 was 1.3 nM.

**Q.** For `CNC(=O)c1ccc(-c2cnc3c(NCCC(F)(F)F)cc(CCCO)cn23)cc1C` [Example 126, 4-{6-(3-hydroxypropyl)-8-[(3,3,3-trifluoropropyl)amino]imidazo[1,2-a]pyridin-3-yl}-N,2-dimethylbenzamide], which IC50 is on record?
**A.** The IC50 was 146 nM.

**Q.** `Cc1ccc(F)cc1Oc1cc(NCCC(F)(F)F)c2ncc(-c3ccc(C(=O)NC4(C#N)CCC4)c(C)c3)n2c1` [Example 63, N-(1-cyanocyclobutyl)-4-{6-(5-fluoro-2-methylphenoxy)-8-[(3,3,3-trifluoropropyl)amino]imidazor-1,2-aliwridin-3-yl}-2-methylbenzamide] was tested. Which IC50 did it give?
**A.** The IC50 was 59.7 nM.

**Q.** How did the IC50 turn out when `Cc1cc(-c2cnc3c(NCCC(F)(F)F)cc(Oc4ccc(OC(F)(F)F)c(F)c4)cn23)ccc1C(=O)NC1(C)CC1` [Example 85, 4-{6-[3-F luoro-4-(trifluoromethoxy)phenoxy]-8-[(3,3,3-trifluoropropyl)amino]imidazo[1,2-a]pyridin-3-yl}-2-methyl-N-(1-methylcyclopropyl)benzamide] was run?
**A.** The IC50 was 199 nM.

**Q.** For `C#Cc1cc(NCCC(F)(F)F)c2ncc(-c3ccc(C(=O)NC4(C#N)CC4)c(C)c3)n2c1` [Example 18, N-(1-cyanocyclopropyl)-4-{6-ethynyl-8-[(3,3,3-trifluoropropyl)amino]imidazo[1,2-a]pyridin-3-yl}-2-methylbenzamide], which IC50 is on record?
**A.** Its IC50 is 65.5 nM.

**Q.** With `C=Cc1cc(NCCC(F)(F)F)c2ncc(-c3ccc(C(=O)NC4CC4)c(C)c3)n2c1` [Example 92, N-cyclopropyl-2-methyl-4-{8-[(3,3,3-trifluoropropyl)amino]-6-vinylimidazo[1,2-a]pyridin-3-yl}benzamide] as the compound, how does the IC50 read?
**A.** The IC50 was 13.2 nM.

**Q.** `COc1ccc(Oc2cc(NCC3CCOCC3)c3ncc(-c4ccc(C(=O)NC5CC5)c(C)c4)n3c2)cc1F` [Example 123, N-cyclopropyl-4-{6-(3-fluoro-4-methoxyphenoxy)-8-[(tetrahydro-2H-pyran-4-ylmethyl)amino]imidazo[1,2-a]pyridin-3-yl}-2-methylbenzamide] was tested. Which IC50 did it give?
**A.** Its IC50 is 0.8 nM.

**Q.** How did the IC50 turn out when `CCNC(=O)c1ccc(-c2cnc3c(NCCC(F)(F)F)cc(-c4ccccc4OC)cn23)cc1C` [Example 82, N-ethyl-4-{6-(2-methoxyphenyl)-8-[(3,3,3-trifluoropropyl)amino]imidazo[1,2-a]pyridin-3-yl}-2-methylbenzamide] was run?
**A.** Its IC50 is 21.3 nM.

**Q.** `Cc1cc(-c2cc(NCCC(F)(F)F)c3ncc(-c4ccc(C(=O)NC5CC5)c(C)c4)n3c2)ccc1C(=O)NC1CC1` [Example 32, 4,4′-{8-[(3,3,3-trifluoropropyl)amino]imidazo[1,2-a]pyridine-3,6-diyl}bis(N-cyclopropyl-2-methylbenzamide)] was tested. Which IC50 did it give?
**A.** The IC50 was 0.9 nM.

**Q.** Which IC50 does the source give for `CNC(=O)c1ccc(-c2cnc3c(NCCC(F)(F)F)cc(Oc4cccc(OC(F)(F)F)c4)cn23)cc1C` [Example 78, N,2-dimethyl-4-{6-[3-(trifluoromethoxy)phenoxy]-8-[(3,3,3-trifluoropropyl)amino]imidazo[1,2-a]pyridin-3-yl}benzamide] here?
**A.** Its IC50 is 30.3 nM.

**Q.** How did the IC50 turn out when `Cc1cc(-c2cnc3c(NCCC(F)(F)F)cc(Oc4ccc(OC(F)(F)F)c(F)c4)cn23)ccc1C(=O)NC1(C#N)CC1` [Example 84, N-(1-cyanocyclopropyl)-4-{6-[3-fluoro-4-(trifluoromethoxy)phencow]-8-[(3,3,3-trifluoropropyl)amino]imidazo[1,2-a]pyridin-3-yl}-2-methylbenzamide] was run?
**A.** Its IC50 is 243 nM.
